Assay results as given in patent publication US20190105337A1, “METHODS OF TREATING BACTERIAL INFECTIONS” (priority 2015, published 2019).
Read-outs that look alike come from different tables or passages of the source.

How the values were obtained:
[1] = In vitro hollow fiber model: pharmacokinetic parameters of meropenem and Compound I in the central compartment (Tables E, F)
Method: In Vitro PK-PD Model: Six medium sized hollow-fiber cartridges (FiberCell Systems) were used per experiment. Three strains studied in duplicate were used for each experiment. Log-phase cells were inoculated and incubated for 2 hours prior to the start of treatment to achieve about 10^8 CFU/mL. Target PK parameters are listed in Tables E and F. The exposures were based on the published literatures disclosed in Example 2. Samples were collected from the central compartment for the determination of drug concentrations over a 32 hour period and were analyzed using an LC-MS/MS method.

[2] = Example 6: noncompartmental plasma pharmacokinetics after third dose of the Combination (2 g meropenem/2 g Compound I q8h); settings: for AUC(0-t) / clearance / Cmax / Tmax / half-life: both, human, plasma, intravenous; for AUC(0-t): AUC0-8, meropenem 2 g q8h; for clearance: CL; for clearance / Cmax / Tmax / Vss: meropenem 2 g q8h; for half-life: t1/2, meropenem 2 g q8h
Method: A total of twenty-five (n=25) male and female subjects who met the study entry criteria and completed all phases of the pharmacokinetic study were included in this pharmacokinetic analysis. […] Blood samples were collected to measure drug concentrations in plasma prior to (time 0), and at 1.5, 2.95, 3.083, 3.25, 3.5, 4, 6, and 8 hours after the start of a 3-hour intravenous infusion of the third combination dose.
(Reports MC14B-0013, MC14B-0015, MC14I-011, and MC14I-0012). The urea concentrations in plasma and BAL were performed with a microplate-based method with an 0-phthalaldehyde chromogenic solution at MicroConstants, Inc., San Diego, Calif.
Peak plasma concentration (Cmax) and time to Cmax (Tmax) were read from the observed plasma concentration-time profile after the start of the intravenous infusion of the third Combination dose. Area under the plasma concentration-time curve over 8 hours (AUC0-8) after the third dose was calculated with the linear-log trapezoidal rule (WinNonlin®, version 6.3, Pharsight Corporation, Cary, N.C.). The elimination rate constant (β) was determined by nonlinear least-squares regression. Elimination half-life (t½) was calculated by dividing β into the natural logarithm of two.

Plasma protein binding = assay type: in vitro ADME
clinical [3] = settings: human, in vivo
Method: The combination of both drugs was administered on day 7. All drugs were infused over 3 hours. Plasma and urine samples were obtained and assayed using validated HPLC/MS methods.

[4] = human, in vivo
Method: Forty one subjects were enrolled in 5 groups based on their degree of renal insufficiency. The five cohorts included: patients with normal renal function (CrCl≥90 ml/min), mild renal impairment (CrCl 60-89 ml/min), moderate renal impairment (CrCl 30-<60 ml/min), severe renal impairment (CrCl<30 ml/min, and patients with end stage renal disease requiring hemodialysis. Patients on renal replacement therapy other than standard hemodialysis (including continuous veno-venous hemofiltration, continuous veno-venous hemodialysis and continuous renal replacement therapy) were not studied.

clinical [5] = settings: human, in vivo; remark: listed apart in the source
Method: All infusions were administered over 3 hours. Intensive plasma and urine PK sampling was obtained after dosing and assayed using validated HPLC/MS methods.

[6] = combination Compound I/meropenem (Table F)

## C[C@@H](O)[C@H]1C(=O)N2C(C(=O)O)=C(S[C@@H]3CN[C@H](C(=O)N(C)C)C3)[C@H](C)[C@H]12 [meropenem, Meropenem]
[1]; [6]
  AUC, Average Meropenem Actual: 131.5 µg·h/mL
  Cmax, Average Meropenem Actual: 33.5 µg/mL
  Half-Life, Average Meropenem Actual: 1.4 h
[1]; meropenem alone (Table E)
  AUC, Average Meropenem Actual: 129.0 µg·h/mL
  Cmax, Average Meropenem Actual: 33.9 µg/mL
  Half-Life, Average Meropenem Actual: 1.3 h
[2]; 1.5-hour BAL Sampling Group
  AUC(0-t): 168 ± 41.7 µg·h/mL
  clearance: 208 mL/min
  Cmax: 56.9 ± 19.3 µg/mL
  Tmax: 2.95 ± 0.01 h
  half-life: 0.98 ± 0.05 h
  Vss: 17.5 ± 2.5 L
[2]; 3.25-hour BAL Sampling Group
  AUC(0-t): 184 ± 29.7 µg·h/mL
  clearance: 185 mL/min
  Cmax: 57.9 ± 7.5 µg/mL
  Tmax: 3 ± 0.07 h
  half-life: 1.04 ± 0.13 h
  Vss: 16.7 ± 2.6 L
[2]; 4-hour BAL Sampling Group
  AUC(0-t): 196 ± 33.5 µg·h/mL
  clearance: 175 mL/min
  Cmax: 59.6 ± 7.4 µg/mL
  Tmax: 2.98 ± 0.06 h
  half-life: 1.07 ± 0.15 h
  Vss: 15.3 ± 2.1 L
[2]; 6-hour BAL Sampling Group
  AUC(0-t): 197 ± 38.7 µg·h/mL
  clearance: 173 mL/min
  Cmax: 59.4 ± 11.5 µg/mL
  Tmax: 2.98 ± 0.06 h
  half-life: 1.12 ± 0.24 h
  Vss: 16.1 ± 3.4 L
[2]; 8-hour BAL Sampling Group
  AUC(0-t): 182 ± 28.7 µg·h/mL
  clearance: 187 mL/min
  Cmax: 57.3 ± 9 µg/mL
  Tmax: 2.98 ± 0.06 h
  half-life: 0.96 ± 0.13 h
  Vss: 15.6 ± 2.8 L
[2]; All Subjects
  AUC(0-t): 186 ± 33.6 µg·h/mL
  clearance: 185 mL/min
  Cmax: 58.2 ± 10.8 µg/mL
  Tmax: 2.98 ± 0.06 h
  half-life: 1.03 ± 0.15 h
  Vss: 16.3 ± 2.6 L
Plasma protein binding
  fraction unbound: 0.94
Plasma protein binding; human
  fraction unbound: 0.98
Clinical [3]
  AUC(0-∞): 130.34 µg·h/mL
  Cmax: 42.54 µg/mL
Clinical [3]; Half-Life
  half-life: 0.98 h
Clinical [3]; Plasma Clearance
  clearance: 334 mL/min
Clinical [3]; Vss
  Vd: 25.9 L
[4]
  non-renal clearance: non-renal clearance assumes a greater proportion of total clearance
Clinical [5]
  AUC(0-∞): 130.34 µg·h/mL
  Cmax: 42.54 µg/mL
Clinical [5]; Half-Life
  half-life: 0.98 h
Clinical [5]; Plasma Clearance
  clearance: 334 mL/min
Clinical [5]; Vss
  Vd: 25.9 L
